Reference: ChEMBL document CHEMBL4339246, “Iridal-Type Triterpenoids with a Cyclopentane Unit from the Rhizomes of Belamcanda chinensis” (J Nat Prod, 2019)

Columns and labels:
BGC-823 = test: Cytotoxicity in human BGC823 cells assessed as reduction in cell viability incubated for 72 hrs by MTT assay; assay type: functional, cell-based; conditions: BGC-823, 72 h
MCF7 = test: Cytotoxicity in human MCF7 cells assessed as reduction in cell viability incubated for 72 hrs by MTT assay; assay type: functional, cell-based; conditions: MCF7, 72 h
BV-2 = test: Antiinflammatory activity in mouse BV2 cells assessed as inhibition of LPS-induced nitric oxide production pretreated for 24 hrs followed by LPS-stimulation for 24 hrs by Griess assay; assay type: functional, cell-based
HCT-116 = test: Cytotoxicity in human HCT116 cells assessed as reduction in cell viability incubated for 72 hrs by MTT assay; assay type: functional, cell-based; conditions: HCT-116, 72 h
[1] = biological target: T1, Tyrosine-protein phosphatase non-receptor type 1 (Homo sapiens) (UniProt P18031); test: Inhibition of recombinant human GST-tagged PTP1B expressed in expressed in Escherichia coli BL21 cells at 10 uM pre-incubated for 5 mins before pNPP substrate addition and further incubated for 30 mins relative to untreated control
T1 sequence (whole entry): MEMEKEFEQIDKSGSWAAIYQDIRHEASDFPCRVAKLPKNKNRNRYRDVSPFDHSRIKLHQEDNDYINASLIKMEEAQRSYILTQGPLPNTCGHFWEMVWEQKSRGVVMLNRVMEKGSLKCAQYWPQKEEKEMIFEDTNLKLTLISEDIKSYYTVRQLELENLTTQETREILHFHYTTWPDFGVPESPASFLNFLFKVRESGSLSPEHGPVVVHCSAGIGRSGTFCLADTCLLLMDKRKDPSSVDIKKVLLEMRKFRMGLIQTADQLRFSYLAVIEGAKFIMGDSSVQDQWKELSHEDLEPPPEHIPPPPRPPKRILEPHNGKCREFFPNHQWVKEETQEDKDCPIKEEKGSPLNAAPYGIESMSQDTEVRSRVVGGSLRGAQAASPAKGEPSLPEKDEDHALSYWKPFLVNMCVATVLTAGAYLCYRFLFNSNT

HepG2 = test: Cytotoxicity in human HepG2 cells assessed as reduction in cell viability incubated for 72 hrs by MTT assay; assay type: functional, cell-based; conditions: HepG2, 72 h
A549 = test: Cytotoxicity in human A549 cells assessed as reduction in cell viability incubated for 72 hrs by MTT assay; assay type: functional, cell-based; conditions: A549, 72 h

Row | IC50 (BV-2) [µM] | inhibition [1] [%] | SMILES | IC50 (BGC-823) [µM] | IC50 (MCF7) [µM] | IC50 (HCT-116) [µM] | IC50 (HepG2) [µM] | IC50 (A549) [µM]
1 | > 10 | 26.4 | C=C(C)[C@H]1CC[C@@](C)(O)[C@@H]1/C=C/C(C)=C/[C@@H]1C[C@@]23[C@H](OCCC[C@@H]2/C(=C(\C)C=O)CC[C@]3(C)O)O1 | > 10 | > 10 | > 10 | > 10 | > 10
2 | > 10 | 24.8 | C=C(C)[C@H]1CC[C@@](C)(O)[C@@H]1/C=C/C(C)=C/[C@@H]1C[C@@]23[C@H](OCCC[C@@H]2/C(=C(/C)C=O)CC[C@]3(C)O)O1 | > 10 | > 10 | > 10 | > 10 | > 10
3 | > 10 | 32.9 | C=C(C)[C@H]1CC[C@@](C)(O)[C@@H]1/C=C/C(C)=C/[C@@H]1C[C@@]2([C@H](OCC)O1)[C@H](CCCO)/C(=C(\C)C=O)CC[C@]2(C)O | > 10 | > 10 | > 10 | > 10 | > 10
4 | > 10 | 33.4 | C=C(C)[C@@H]1CC[C@](C)(O)[C@H]1/C=C/C(C)=C/[C@@H]1C[C@@]23[C@H](OCCC[C@@H]2/C(=C(\C)C=O)CC[C@]3(C)O)O1 | > 10 | > 10 | > 10 | > 10 | > 10
5 | > 10 | -1.8 | C=C(C)[C@@H]1CC[C@](C)(O)[C@H]1/C=C/C(C)=C/[C@@H]1C[C@@]2([C@H](OC)O1)[C@H](CCCO)/C(=C(\C)C=O)CC[C@]2(C)O | > 10 | > 10 | > 10 | > 10 | > 10
6 | > 10 | 16.5 | C=C(C)[C@@H]1CC[C@](C)(O)[C@H]1/C=C/C(C)=C/[C@@H]1C[C@@]23[C@H](OCCC[C@@H]2/C(=C(/C)C=O)CC[C@]3(C)O)O1 | > 10 | > 10 | > 10 | > 10 | > 10
7 | > 10 | 23.5 | C=C(C)[C@@H]1CC[C@](C)(O)[C@H]1/C=C/C(C)=C/[C@@H]1C[C@@]2([C@H](OC)O1)[C@H](CCCO)/C(=C(/C)C=O)CC[C@]2(C)O | > 10 | > 10 | > 10 | > 10 | > 10
8 | > 10 | 15.2 | C=C(C)[C@H]1CC[C@@](C)(O)[C@@H]1/C=C/C(C)=C/[C@@H]1C[C@@]2([C@H](OC)O1)[C@H](CCCO)/C(=C(\C)C=O)CC[C@]2(C)O | > 10 | > 10 | > 10 | > 10 | > 10
9 | > 10 | -0.5 | C=C(C)[C@H]1CC[C@@](C)(O)[C@@H]1/C=C/C(C)=C/[C@@H]1C[C@@]2([C@H](OC)O1)[C@H](CCCO)/C(=C(/C)C=O)CC[C@]2(C)O | > 10 | > 10 | > 10 | > 10 | > 10
